Positions of bridges follow the written chain, without caps; N, C: chain ends. Non-standard residues stand in square brackets, D forms with d. Residues, ends and D or L forms follow the SMILES beside them.
Tests used:
[1] = tested on: H2B-Ub levels in HEK293T cells; assay: Cell-based assay of H2B-Ub levels (histone extraction, western blot); design: species or system human; conditions: 5 μM, two hours, normalized to H3
Experimental: Bottom: anti-histone H3 loading control.
Cell-based Assay HEK293T cells were purchased from ATCC (CRL-3216) and cultures were expanded for at least 10 passages in Dulbecco's Modified Eagle Medium (DMEM) supplemented with 10% fetal bovine serum (FBS) in T75 flasks incubated in a 37° C. and 5% CO2 cabinet before any manipulation. Once cells were mature, HEK293T cells were grown to 80% confluence in 6-well plates, the media were aspirated, and media with reduced FBS (DMEM, 2% FBS) and 5 μM cyclic peptide were introduced. After two hours, the media were aspirated, and the cells were collected by scraping (˜1×10^6 cells per well). The cells were then washed in 1× PBS twice followed by histone extraction (Active Motif). The extracted histones were then western blotted for H2B-Ub levels (Cell Signaling, 5546S), using H3 western blotting (Abcam, ab1791) to normalize loading.
Each cyclic peptide was introduced as a supplement to the growth medium of HEK293T cells, the histones were extracted from each culture after two hours of exposure, and the levels of H2B-Ub was quantified by immunoblot. Levels of H2B-Ub were compared to control cells that were treated with DMSO, the yD1 cyclic peptide that has no effect on USP22 activity, or the broad-spectrum cell permeable DUB inhibitor. PR-619. The relative abundance of histone H3 was used to control for differences in nuclear extraction.

[2] = biological target: T1, human DUB module (hDUBm; USP22, ATXN7, ATXN7L3, ENY2) (Homo sapiens, UniProt Q9UPT9); assay: Ub-AMC deubiquitination assay, human DUB module; type: biochemical; conditions: 200 nM DUB, 1 μM Ub-AMC; read-out: Ki (apparent, Morrison approximation), Ub-AMC cleavage
T1 construct: 6xHis (TEV-cleavable) (N, cleaved yes); made in house; host or cells: High Five insect cells (baculovirus, Bac2Bac; virus amplified in Sf9)
Experimental: FIG. 2A is a graph of initial rates of Ub-AMC cleavage by hDUB module as a function of substrate concentration. […] FIGS. 2B-2G are graphs of each cyclic peptide, as indicated, tested for its ability to inhibit Ub-AMC cleavage in the presence of increasing amounts of the peptide into a reaction with a fixed amount of DUB (200 nM) and Ub-AMC (1 μM). Ki values were determined for each curve using the Morrison Ki approximation.
Ub-AMC deubiquitination assay A working stock mixture of either yDUBm or hDUBm was prepared in the presence of either DMSO (mock) or a dilution series of the cyclic peptide. […] Each enzyme:peptide mixture was incubated for 30 min at 30° C. in the case of yDUBm, and 37° C. in the case of hDUBm, with each enzyme complex at 1.033× the desired concentration (207 nM). The enzyme:peptide mixture ([…]) was added to 1 μL of 30 μM U b-AMC (7-amino-4-methylcoumarin) (Boston Biochem), for a final concentration of 200 nM DUBm, the indicated cyclic peptide concentration, and 1 μM Ub-AMC. DUB activity was measured by observing the increase in AMC fluorescence in a plate reader, and the initial rate of fluorescence increase was calculated and plotted as a function of inhibitor concentration (FIGS. 2B-2I). The Ki values were determined using the Morrison approximation of enzyme inhibition equilibria within Prism (Graphpad).
The cyclic peptides that constituted potential inhibitors were chemically synthesized by solid phase peptide synthesis and tested for their effectiveness and specificity as inhibitors in vitro. Since the enzyme kinetics of the human DUB module had not previously been characterized, hDUBm activity was assayed using the fluorogenic substrate, ubiquitin-amino methyl coumarin (Ub-AMC) (FIG. 2A).

[3] = biological target: human DUB module (hDUBm) on H2B-K120 ubiquitinated nucleosomes (Homo sapiens, UniProt Q9UPT9); assay: Deubiquitination of nucleosomal H2B by hDUBm; conditions: 1 μM cyclic peptide, 200 nM hDUBm, 1 uM H2B-Ub nucleosome
Experimental: Deubiquitination of nucleosomal H2B Recombinant human mononucleosomes containing histone H2B ubiquitinated at K120 (H2B-Ub) were obtained from Epicypher (dNuc, 16-0370) and diluted to 2 μM with reaction buffer. Both hDUBm and inhibitor peptides were diluted from concentrated stocks with reaction buffer (10 mM HEPES pH 7.5, 150 mM NaCl, 1 μM ZnCl2, and 0.2 mM TCEP) to a final concentration of 400 nM DUB module and 2 μM cyclic peptide and incubated at 37° C. for 20 minutes. Reactions were initiated by combining equal volumes of the enzyme-peptide mixture and nucleosomes, resulting in final concentrations of 200 nM hDUBm, 1 μM cyclic peptide, and 1 uM H2B-Ub nucleosome. Time points of the reaction were quenched with SDS sample buffer, separated by SDS-PAGE (Invitrogen, Bolt gels), and stained with Sypro Ruby (Life Technologies). Gels were imaged and quantitated (BioRad product info), using the H3 band as an independent load control to normalize the band intensities of H2B-Ub. Experiments were done in triplicate and analyzed using Prism (GraphPad).
To test the effectiveness of the inhibitors on a native-like substrate, the ability of each cyclic peptide to inhibit DUB activity on nucleosomes ubiquitinated at H2B-K120 was assayed.

[4] = Solubility in aqueous conditions; type: physicochemical

T1 sequence (Q9UPT9 whole entry): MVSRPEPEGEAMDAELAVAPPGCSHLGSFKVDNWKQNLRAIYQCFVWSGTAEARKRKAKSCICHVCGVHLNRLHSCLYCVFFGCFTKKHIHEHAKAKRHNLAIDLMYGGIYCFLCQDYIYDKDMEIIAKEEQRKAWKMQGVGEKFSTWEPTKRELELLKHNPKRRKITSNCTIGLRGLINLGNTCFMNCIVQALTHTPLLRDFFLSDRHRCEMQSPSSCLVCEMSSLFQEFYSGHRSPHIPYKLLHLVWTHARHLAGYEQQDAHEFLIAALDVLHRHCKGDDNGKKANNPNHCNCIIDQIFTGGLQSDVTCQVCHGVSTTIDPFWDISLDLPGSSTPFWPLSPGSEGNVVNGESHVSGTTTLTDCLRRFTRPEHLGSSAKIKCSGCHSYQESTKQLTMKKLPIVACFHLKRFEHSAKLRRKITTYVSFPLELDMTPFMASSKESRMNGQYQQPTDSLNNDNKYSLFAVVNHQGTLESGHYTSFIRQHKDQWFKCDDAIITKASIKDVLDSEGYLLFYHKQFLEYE
T1 sequence (O15265 3-151 partner limits assumed): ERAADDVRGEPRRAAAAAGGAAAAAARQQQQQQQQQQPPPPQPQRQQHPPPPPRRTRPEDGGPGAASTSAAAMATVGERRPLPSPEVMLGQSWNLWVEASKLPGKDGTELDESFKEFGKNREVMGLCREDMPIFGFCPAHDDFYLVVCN
T1 sequence (Q14CW9 whole entry partner): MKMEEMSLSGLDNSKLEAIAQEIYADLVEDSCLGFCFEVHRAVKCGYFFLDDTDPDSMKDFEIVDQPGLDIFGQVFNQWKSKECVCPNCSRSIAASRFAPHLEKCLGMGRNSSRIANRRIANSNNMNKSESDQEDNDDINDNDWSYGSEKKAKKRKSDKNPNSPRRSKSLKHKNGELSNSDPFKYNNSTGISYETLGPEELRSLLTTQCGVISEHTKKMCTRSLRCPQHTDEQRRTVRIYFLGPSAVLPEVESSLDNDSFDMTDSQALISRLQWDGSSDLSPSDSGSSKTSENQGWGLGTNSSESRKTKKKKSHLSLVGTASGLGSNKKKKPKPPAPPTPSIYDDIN
T1 sequence (Q9NPA8 whole entry partner): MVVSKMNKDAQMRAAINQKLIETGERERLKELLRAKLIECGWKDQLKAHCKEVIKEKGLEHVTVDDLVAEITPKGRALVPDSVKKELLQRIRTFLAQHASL
human DUB module (hDUBm) on H2B-K120 ubiquitinated nucleosomes, sequence (Q9UPT9 whole entry): as the sequence (Q9UPT9 whole entry) above
human DUB module (hDUBm) on H2B-K120 ubiquitinated nucleosomes, sequence (O15265 3-151 partner limits assumed): as the sequence (O15265 3-151 partner limits assumed) above
human DUB module (hDUBm) on H2B-K120 ubiquitinated nucleosomes, sequence (Q14CW9 whole entry partner): as the sequence (Q14CW9 whole entry partner) above
human DUB module (hDUBm) on H2B-K120 ubiquitinated nucleosomes, sequence (Q9NPA8 whole entry partner): as the sequence (Q9NPA8 whole entry partner) above

Ki [2] | SMILES | further results
804 nM | CC[C@H](C)[C@@H]1NC(=O)[C@H](Cc2c[nH]c3ccccc23)NC(=O)[C@@H](Cc2ccc(O)cc2)NC(=O)CSC[C@@H](C(N)=O)NC(=O)[C@H](Cc2ccccc2)NC(=O)[C@H](CO)NC(=O)[C@H](CCCCN)NC(=O)[C@H](CO)NC(=O)[C@H](CC(C)C)NC(=O)CNC(=O)[C@H](CCCNC(=N)N)NC(=O)[C@H](Cc2ccc(O)cc2)NC(=O)[C@H](CO)NC(=O)[C@H](Cc2c[nH]cn2)NC(=O)[C@H]([C@@H](C)O)NC1=O [hD4] ({CH2CO}-[dY]WITHSYRGLSKSFC-NH2; thioether N-15) | –
< 100 nM | CC[C@H](C)[C@@H]1NC(=O)[C@H](Cc2c[nH]cn2)NC(=O)[C@H](CC(=O)O)NC(=O)[C@H](CO)NC(=O)[C@H](Cc2c[nH]c3ccccc23)NC(=O)[C@H](Cc2ccccc2)NC(=O)[C@H](CCCNC(=N)N)NC(=O)[C@H](Cc2ccccc2)NC(=O)[C@H](CC(N)=O)NC(=O)[C@H](CC(C)C)NC(=O)[C@H]([C@@H](C)O)NC(=O)[C@H](Cc2ccc(O)cc2)NC(=O)CSC[C@@H](C(N)=O)NC(=O)[C@H](CO)NC(=O)[C@H](Cc2ccc(O)cc2)NC(=O)[C@H](Cc2c[nH]c3ccccc23)NC(=O)[C@H](CO)NC1=O [hL1] ({CH2CO}-YTLNFRFWSDHISWYSC-NH2; thioether N-17) | –

The next lines start with the compound.

SMILES | Ki [2] | further results
N#CSc1cc(SC#N)c(N)nc1N [PR-619] | – | change of H2B-Ub levels [1]: minor increase
C[C@@H]1NC(=O)CNC(=O)[C@H](CCCNC(=N)N)NC(=O)[C@H](Cc2ccc(O)cc2)NC(=O)[C@H](CO)NC(=O)[C@H](Cc2c[nH]c3ccccc23)NC(=O)[C@H](CCC(N)=O)NC(=O)[C@H](Cc2c[nH]cn2)NC(=O)[C@@H](Cc2ccc(O)cc2)NC(=O)CSC[C@@H](C(N)=O)NC(=O)[C@H](CO)NC(=O)[C@H](CCCNC(=N)N)NC(=O)[C@H](Cc2ccc(O)cc2)NC(=O)[C@H]([C@@H](C)O)NC1=O [hD2] ({CH2CO}-[dY]HQWSYRGATYRSC-NH2; thioether N-14) | < 100 nM | –
CC(C)C[C@@H]1NC(=O)[C@H](Cc2c[nH]c3ccccc23)NC(=O)[C@H](CO)NC(=O)[C@H](CCCNC(=N)N)NC(=O)[C@H](CC(C)C)NC(=O)[C@H](CCCNC(=N)N)NC(=O)[C@H](Cc2ccc(O)cc2)NC(=O)[C@H](Cc2ccc(O)cc2)NC(=O)[C@H](CO)NC(=O)[C@@H]2CCCN2C(=O)CNC(=O)[C@H](CC(N)=O)NC(=O)[C@@H](Cc2ccc(O)cc2)NC(=O)CSC[C@@H](C(N)=O)NC(=O)[C@H](CO)NC(=O)[C@H](CO)NC1=O [hD3] ({CH2CO}-[dY]NGPSYYRLRSWLSSC-NH2; thioether N-16) | – | inhibition of nucleosomal H2B-Ub cleavage by hDUBm [3]: inhibit the enzymatic activity
CC(C)C[C@@H]1NC(=O)[C@H](Cc2ccc(O)cc2)NC(=O)CSC[C@@H](C(N)=O)NC(=O)[C@H](Cc2ccc(O)cc2)NC(=O)[C@H](CC(C)C)NC(=O)[C@H](CCCNC(=N)N)NC(=O)[C@H](CC(C)C)NC(=O)[C@H](CO)NC(=O)[C@H](Cc2c[nH]c3ccccc23)NC(=O)CNC(=O)[C@H](Cc2ccccc2)NC(=O)[C@H](CO)NC(=O)[C@H](Cc2ccccc2)NC(=O)[C@H](C)NC(=O)[C@H](CO)NC(=O)[C@H](CC(=O)O)NC(=O)[C@H](Cc2c[nH]cn2)NC1=O [yL1] ({CH2CO}-YLHDSAFSFGWSLRLYC-NH2; thioether N-17) | – | solubility in aqueous conditions [4]: insoluble in aqueous conditions
